“And” between values parts separate entries of the source, which are not always exact repeats. Equal values may be shown once. Inconclusive results and toxic doses are left out. Rule as the data show it: active = T/C of 150% or more; inactive = T/C below 125%.
Test system: L1210 leukemia ip in BDF1 mice, survival T/C
Test: NCI In Vivo Anticancer Drug Screen. Data for tumor model L1210 Leukemia (intraperitoneal) in B6D2F1 (BDF1) mice
Details: endpoint: mean survival time, higher = longer survival
Summary of the method: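 Each compound was tested against a transplantable tumor grown in mice. The endpoint was survival, with treated animals benchmarked against vehicle controls as a simple ratio.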

[1] = dose: 100.0 mg/kg/injection, schedule: Q04DX003 (ip), vehicle: saline
[2] = dose: 100.0 mg/kg/injection, schedule: Q04DX003 (ip), vehicle: saline with Tween-80
[3] = dose: 200.0 mg/kg/injection, schedule: Q04DX003 (ip), vehicle: saline with Tween-80
[4] = dose: 400.0 mg/kg/injection, schedule: Q04DX003 (ip), vehicle: saline with Tween-80
[5] = dose: 100.0 mg/kg/injection, schedule: Q01DX009 (ip), vehicle: saline with Tween-80
[6] = dose: 200.0 mg/kg/injection, schedule: Q01DX009 (ip), vehicle: saline with Tween-80
[7] = dose: 400.0 mg/kg/injection, schedule: Q01DX009 (ip), vehicle: saline with Tween-80
[8] = dose: 100.0 mg/kg/injection, schedule: Q01DX001 (ip), vehicle: carboxymethylcellulose (CMC)
[9] = dose: 400.0 mg/kg/injection, schedule: Q01DX001 (ip), vehicle: carboxymethylcellulose (CMC)
[10] = dose: 25.0 mg/kg/injection, schedule: Q01DX009 (ip), vehicle: saline with Tween-80
[11] = dose: 50.0 mg/kg/injection, schedule: Q01DX009 (ip), vehicle: saline with Tween-80
[12] = dose: 200.0 mg/kg/injection, schedule: Q01DX001 (ip), vehicle: carboxymethylcellulose (CMC)
[13] = dose: 75.0 mg/kg/injection, schedule: Q01DX001 (ip), vehicle: other
[14] = dose: 150.0 mg/kg/injection, schedule: Q01DX001 (ip), vehicle: other

Measured: T/C

CC1(C)N=C(N)N=C(N)N1c1cccc([N+](=O)[O-])c1
inactive: dose: 25.0 mg/kg/injection, schedule: Q04DX002 (ip), vehicle: saline 93 % of control | dose: 25.0 mg/kg/injection, schedule: Q04DX003 (ip), vehicle: saline 106 % of control | dose: 50.0 mg/kg/injection, schedule: Q04DX002 (ip), vehicle: saline 96 % of control | dose: 50.0 mg/kg/injection, schedule: Q04DX003 (ip), vehicle: saline 105 % of control | dose: 100.0 mg/kg/injection, schedule: Q04DX002 (ip), vehicle: saline 91 % of control | [1] 98 % of control and 111 % of control

O=C(Nc1cc(C(F)(F)F)ccc1Cl)N(Cc1ccccc1)c1ccccc1
inactive: dose: 100.0 mg/kg/injection, schedule: Q04DX002 (ip), vehicle: Klucel (hydroxypropylcellulose) (HPC) 93 % of control and 108 % of control | dose: 200.0 mg/kg/injection, schedule: Q04DX002 (ip), vehicle: Klucel (hydroxypropylcellulose) (HPC) 98 % of control and 118 % of control | dose: 400.0 mg/kg/injection, schedule: Q04DX002 (ip), vehicle: Klucel (hydroxypropylcellulose) (HPC) 98 % of control | dose: 800.0 mg/kg/injection, schedule: Q04DX002 (ip), vehicle: Klucel (hydroxypropylcellulose) (HPC) 94 % of control

Cc1ccc(NC(=O)c2ccc(C(=O)Nc3ccc(C)cc3)cc2)cc1
inactive: dose: 56.0 mg/kg/injection, schedule: Q01DX Z (ip), vehicle: carboxymethylcellulose (CMC) 88 % of control | dose: 225.0 mg/kg/injection, schedule: Q01DX Z (ip), vehicle: carboxymethylcellulose (CMC) 92 % of control

CC1CCC(C(C)C)C2(C1)NC(=O)N(CC(=O)O)C2=O (stereo unspecified)
inactive: [2] 93 % of control | [3] 100 % of control | [4] 104 % of control

CCCn1nnc2ccccc2c1=Nc1ccccc1
inactive: [1] 99 % of control | dose: 200.0 mg/kg/injection, schedule: Q04DX003 (ip), vehicle: saline 94 % of control | dose: 400.0 mg/kg/injection, schedule: Q04DX003 (ip), vehicle: saline 103 % of control

O=C(CCC(=O)c1cccc([N+](=O)[O-])c1)NNc1ccc([N+](=O)[O-])cc1[N+](=O)[O-]
inactive: [5] 95 % of control | [6] 105 % of control | [7] 92 % of control

Cc1ccc(Cl)c([N+](=O)[O-])c1N
inactive: [5] 92 % of control | [2] 106 % of control | [6] 95 % of control | [3] 104 % of control | [7] 108 % of control | [4] 104 % of control

CNc1ccc(/C=C2\C=Cc3ccccc32)cc1Cl
inactive: [8] 97 % of control | [9] 92 % of control

COc1cccn(C/C=C(\C)CCC=C(C)C)c1=O
inactive: [10] 104 % of control | dose: 25.0 mg/kg/injection, schedule: Q04DX003 (ip), vehicle: saline with Tween-80 99 % of control | [11] 94 % of control | dose: 50.0 mg/kg/injection, schedule: Q04DX003 (ip), vehicle: saline with Tween-80 97 % of control | [5] 90 % of control | [2] 91 % of control

CS(=O)(=O)Oc1c(Br)cc(Br)c2cccnc12
inactive: [8] 104 % of control | [12] 98 % of control | [9] 98 % of control

C/C=C\C1CC2CC(C1C)C2(C)C (stereo unspecified)
inactive: dose: 50.0 mg/kg/injection, schedule: Q01DX009 (ip), vehicle: saline 102 % of control | dose: 100.0 mg/kg/injection, schedule: Q01DX009 (ip), vehicle: saline 97 % of control | dose: 200.0 mg/kg/injection, schedule: Q01DX009 (ip), vehicle: saline 105 % of control

Nc1ccc(OCCCOc2ccccc2)cc1
inactive: dose: 100.0 mg/kg/injection, schedule: Q01DX001 (ip), vehicle: saline with Tween-80 102 % of control | [5] 101 % of control | dose: 200.0 mg/kg/injection, schedule: Q01DX001 (ip), vehicle: saline with Tween-80 102 % of control | [6] 112 % of control | dose: 400.0 mg/kg/injection, schedule: Q01DX001 (ip), vehicle: saline with Tween-80 97 % of control

O=C(CCCCn1cnc2c(=S)nc[nH]c21)Nc1ccc(C(=O)O)cc1
inactive: dose: 50.0 mg/kg/injection, schedule: Q01DX Z (ip), vehicle: carboxymethylcellulose (CMC) 101 % of control | dose: 100.0 mg/kg/injection, schedule: Q01DX Z (ip), vehicle: carboxymethylcellulose (CMC) 95 % of control | dose: 200.0 mg/kg/injection, schedule: Q01DX Z (ip), vehicle: carboxymethylcellulose (CMC) 104 % of control | dose: 400.0 mg/kg/injection, schedule: Q01DX Z (ip), vehicle: carboxymethylcellulose (CMC) 96 % of control

CN(CCc1ccccc1)/N=N/c1[nH]ncc1C(N)=O
inactive: dose: 100.0 mg/kg/injection, schedule: Q01DX001 (ip), vehicle: Klucel (hydroxypropylcellulose) (HPC) 108 % of control | dose: 100.0 mg/kg/injection, schedule: Q01DX009 (ip), vehicle: Klucel (hydroxypropylcellulose) (HPC) 103 % of control | dose: 100.0 mg/kg/injection, schedule: Q04DX003 (ip), vehicle: Klucel (hydroxypropylcellulose) (HPC) 105 % of control | dose: 200.0 mg/kg/injection, schedule: Q01DX001 (ip), vehicle: Klucel (hydroxypropylcellulose) (HPC) 105 % of control | dose: 200.0 mg/kg/injection, schedule: Q01DX009 (ip), vehicle: Klucel (hydroxypropylcellulose) (HPC) 106 % of control | dose: 200.0 mg/kg/injection, schedule: Q04DX003 (ip), vehicle: Klucel (hydroxypropylcellulose) (HPC) 97 % of control | dose: 400.0 mg/kg/injection, schedule: Q01DX001 (ip), vehicle: Klucel (hydroxypropylcellulose) (HPC) 113 % of control | dose: 400.0 mg/kg/injection, schedule: Q04DX003 (ip), vehicle: Klucel (hydroxypropylcellulose) (HPC) 100 % of control | dose: 600.0 mg/kg/injection, schedule: Q01DX009 (ip), vehicle: Klucel (hydroxypropylcellulose) (HPC) 105 % of control

NC(N)=N/N=C/C(N)(/C=N/N=C(N)N)/C=N/N=C(N)N
inactive: dose: 120.0 mg/kg/injection, schedule: Q01DX Z (oral), vehicle: saline 106 % of control | dose: 240.0 mg/kg/injection, schedule: Q01DX Z (oral), vehicle: saline 114 % of control | dose: 480.0 mg/kg/injection, schedule: Q01DX Z (oral), vehicle: saline 113 % of control | dose: 960.0 mg/kg/injection, schedule: Q01DX Z (oral), vehicle: saline 106 % of control

c1ccc(C2C(c3ccccc3)C(c3ccccc3)C2c2ccccc2)cc1 (stereo unspecified)
inactive: dose: 75.0 mg/kg/injection, schedule: Q01DX001 (ip), vehicle: carboxymethylcellulose (CMC) 91 % of control | dose: 150.0 mg/kg/injection, schedule: Q01DX001 (ip), vehicle: carboxymethylcellulose (CMC) 94 % of control | dose: 300.0 mg/kg/injection, schedule: Q01DX001 (ip), vehicle: carboxymethylcellulose (CMC) 88 % of control

Clc1ccc(-c2coc3cccc[n+]23)cc1
inactive: [13] 100 % of control | [14] 97 % of control | dose: 300.0 mg/kg/injection, schedule: Q01DX001 (ip), vehicle: other 97 % of control

O=C(C[n+]1ccccc1Br)c1cccc([N+](=O)[O-])c1
inactive: [13] 100 % of control | [14] 108 % of control

CN1COC(OC(C)(C)C)C(C)(C)C1 (stereo unspecified)
inactive: dose: 100.0 mg/kg/injection, schedule: Q01DX001 (ip), vehicle: saline sonified 90 % of control | dose: 400.0 mg/kg/injection, schedule: Q01DX001 (ip), vehicle: saline sonified 95 % of control

CN(C)c1ccc(-c2ccc(N(C)C)cc2)cc1
inactive: dose: 50.0 mg/kg/injection, schedule: Q01DX001 (ip), vehicle: carboxymethylcellulose (CMC) 100 % of control | [8] 100 % of control | [12] 96 % of control | [9] 106 % of control

CSC(=O)N=Nc1c(O)n(C)c(=O)n(C)c1=O
inactive: dose: 12.5 mg/kg/injection, schedule: Q01DX009 (ip), vehicle: saline with Tween-80 104 % of control | [10] 97 % of control | [11] 97 % of control and 87 % of control

CCC(C)NC(=O)C1C2CC3OC(=O)C1C3C2 (stereo unspecified)
inactive: [2] 106 % of control and 98 % of control | [3] 101 % of control and 98 % of control | [4] 95 % of control and 98 % of control

O=c1[nH]cnc2nc(Br)[nH]c12
inactive: dose: 100.0 mg/kg/injection, schedule: Q01DX001 (ip), vehicle: saline 104 % of control | dose: 200.0 mg/kg/injection, schedule: Q01DX001 (ip), vehicle: saline 95 % of control | dose: 400.0 mg/kg/injection, schedule: Q01DX001 (ip), vehicle: saline 98 % of control
